Assay results published in PubChem BioAssay AID2060907 (Molecular Pharmacology Branch, DTP, NCI, 2025).
pIC50: −log10 of the molar value.

Test system: 388556-164-R-J1-PDC complex spheroid viability
Test: Anticancer human tumor 388556-164-R-J1-PDC patient-derived colon adenocarcinoma cell line growth inhibition [RAS]
Settings: for pIC50: curve of first compound; for viability, T/C: stronger effect = lower value
In short: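 Multi-cell-type spheroids: tumor cells plus HUVEC endothelial cells and mesenchymal stem cells. RAS-pathway inhibitors were combined with targeted agents, each dosed in half-log steps down from clinical Cmax, or from 10 microM when Cmax was unknown.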
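Further: spheroids exposed to compound for 7 days before readout.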
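Wherever viability, T/C is given: 100% = DMSO vehicle control luminescence.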

CCN1CCN(Cc2ccc(Nc3ncc(F)c(-c4cc(F)c5nc(C)n(C(C)C)c5c4)n3)nc2)CC1 + C=CC(=O)N1CCN(c2nc(OCC3CCCN3C)nc3c(F)c(-c4nc(N)cc(C)c4C(F)(F)F)c(Cl)cc23)C(C)C1
pIC50 (second compound 0.00316 µM): < 6.00
pIC50 (second compound 0.01 µM): < 6.00
pIC50 (second compound 0.0316 µM): < 6.00
pIC50 (second compound 0.1 µM): < 6.00
pIC50 (second compound 0.316 µM): < 6.00
pIC50 (second compound 1 µM): < 6.00
viability, T/C (second compound 0.00316 µM, first compound 0.00316 µM): 111%
viability, T/C (second compound 0.00316 µM, first compound 0.01 µM): 104%
viability, T/C (second compound 0.00316 µM, first compound 0.0316 µM): 93.1%
viability, T/C (second compound 0.00316 µM, first compound 0.1 µM): 88.8%
viability, T/C (second compound 0.00316 µM, first compound 0.316 µM): 104%
viability, T/C (second compound 0.00316 µM, first compound 1 µM): 98.3%
viability, T/C (second compound 0.01 µM, first compound 0.00316 µM): 97.5%
viability, T/C (second compound 0.01 µM, first compound 0.01 µM): 101%
viability, T/C (second compound 0.01 µM, first compound 0.0316 µM): 93%
viability, T/C (second compound 0.01 µM, first compound 0.1 µM): 95.6%
viability, T/C (second compound 0.01 µM, first compound 0.316 µM): 96.2%
viability, T/C (second compound 0.01 µM, first compound 1 µM): 89.4%
viability, T/C (second compound 0.0316 µM, first compound 0.00316 µM): 100%
viability, T/C (second compound 0.0316 µM, first compound 0.01 µM): 101%
viability, T/C (second compound 0.0316 µM, first compound 0.0316 µM): 95.4%
viability, T/C (second compound 0.0316 µM, first compound 0.1 µM): 93%
viability, T/C (second compound 0.0316 µM, first compound 0.316 µM): 98.3%
viability, T/C (second compound 0.0316 µM, first compound 1 µM): 87.8%
viability, T/C (second compound 0.1 µM, first compound 0.00316 µM): 106%
viability, T/C (second compound 0.1 µM, first compound 0.01 µM): 105%
viability, T/C (second compound 0.1 µM, first compound 0.0316 µM): 90.3%
viability, T/C (second compound 0.1 µM, first compound 0.1 µM): 88.9%
viability, T/C (second compound 0.1 µM, first compound 0.316 µM): 91.5%
viability, T/C (second compound 0.1 µM, first compound 1 µM): 84.5%
viability, T/C (second compound 0.316 µM, first compound 0.00316 µM): 105%
viability, T/C (second compound 0.316 µM, first compound 0.01 µM): 100%
viability, T/C (second compound 0.316 µM, first compound 0.0316 µM): 98.2%
viability, T/C (second compound 0.316 µM, first compound 0.1 µM): 89.7%
viability, T/C (second compound 0.316 µM, first compound 0.316 µM): 91.8%
viability, T/C (second compound 0.316 µM, first compound 1 µM): 84.3%
viability, T/C (second compound 1 µM, first compound 0.00316 µM): 102%
viability, T/C (second compound 1 µM, first compound 0.01 µM): 104%
viability, T/C (second compound 1 µM, first compound 0.0316 µM): 100%
viability, T/C (second compound 1 µM, first compound 0.1 µM): 93%
viability, T/C (second compound 1 µM, first compound 0.316 µM): 79.7%
viability, T/C (second compound 1 µM, first compound 1 µM): 94%
